According to ChEMBL document CHEMBL3885861, “Open TG-GATES”:

Species on record: Rattus norvegicus
Test: Open TG-GATES - Regimen: Single
Format: toxicity, organism-based, Sprague-Dawley
Design: regimen Single, gender Male, age 6 weeks
Settings: in vivo, ip, 24 h, route intraperitoneal injection; for Bas / Eos / Hb / Ht / Lym / MCH / MCHC / MCV / Mono / Neu / Plat / RBC / Ret / WBC: tissue Blood; for KIDNEY_L / KIDNEY_R / KIDNEY_TOTAL: tissue Kidney; for LIVER: tissue Liver; for A/G / ALP / ALT / AST / BUN / CRE / Ca / Cl / DBIL / GLC / IP / K / LDH / Na / PL / RALB / TBIL / TC / TG / TP / gamma-GTP: tissue Plasma

SMILES: CN(N=O)C(N)=O [N-METHYL-N-NITROSUREA]
- TERMINAL_BW (0 mg/kg, dose level Control): 240.3 g
- Bas (0 mg/kg, dose level Control): 0%
- Eos (0 mg/kg, dose level Control): 0.8%
- Hb (0 mg/kg, dose level Control): 12.5 g/dL
- Ht (0 mg/kg, dose level Control): 38.8%
- Lym (0 mg/kg, dose level Control): 78.8%
- MCH (0 mg/kg, dose level Control): 19.9 pg
- MCHC (0 mg/kg, dose level Control): 32.4%
- MCV (0 mg/kg, dose level Control): 61.6 fL
- Mono (0 mg/kg, dose level Control): 2.4%
- Neu (0 mg/kg, dose level Control): 17.6%
- Plat (0 mg/kg, dose level Control): 125.4 x10_4/uL
- RBC (0 mg/kg, dose level Control): 629.8 x10_4/ul
- Ret (0 mg/kg, dose level Control): 8.1%
- WBC (0 mg/kg, dose level Control): 104.4 x10_2/uL
- KIDNEY_L (0 mg/kg, dose level Control): 1 g
- KIDNEY_R (0 mg/kg, dose level Control): 1 g
- KIDNEY_TOTAL (0 mg/kg, dose level Control): 2 g
- LIVER (0 mg/kg, dose level Control): 11.1 g
- A/G (0 mg/kg, dose level Control): 1
- ALP (0 mg/kg, dose level Control): 1557.2 IU/L
- ALT (0 mg/kg, dose level Control): 41.2 IU/L
- AST (0 mg/kg, dose level Control): 72.8 IU/L
- BUN (0 mg/kg, dose level Control): 17.5 mg/dL
- CRE (0 mg/kg, dose level Control): 0.2 mg/dL
- Ca (0 mg/kg, dose level Control): 10.7 mg/dL
- Cl (0 mg/kg, dose level Control): 102.9 meq/L
- DBIL (0 mg/kg, dose level Control): 0 mg/dL
- GLC (0 mg/kg, dose level Control): 198 mg/dL
- IP (0 mg/kg, dose level Control): 7.1 mg/dL
- K (0 mg/kg, dose level Control): 4.2 meq/L
- LDH (0 mg/kg, dose level Control): 141.2 IU/L
- Na (0 mg/kg, dose level Control): 141.4 meq/L
- PL (0 mg/kg, dose level Control): 160 mg/dL
- RALB (0 mg/kg, dose level Control): 2.7 g/dL
- TBIL (0 mg/kg, dose level Control): 0.004 mg/dL
- TC (0 mg/kg, dose level Control): 79.4 mg/dL
- TG (0 mg/kg, dose level Control): 135 mg/dL
- TP (0 mg/kg, dose level Control): 5.6 g/dL
- gamma-GTP (0 mg/kg, dose level Control): 1 IU/L
- TERMINAL_BW (10 mg/kg, dose level Low): 233.4 g
- Bas (10 mg/kg, dose level Low): 0%
- Eos (10 mg/kg, dose level Low): 0.2%
- Hb (10 mg/kg, dose level Low): 13 g/dL
- Ht (10 mg/kg, dose level Low): 39.7%
- Lym (10 mg/kg, dose level Low): 90.2%
- MCH (10 mg/kg, dose level Low): 19.9 pg
- MCHC (10 mg/kg, dose level Low): 32.8%
- MCV (10 mg/kg, dose level Low): 60.7 fL
- Mono (10 mg/kg, dose level Low): 2.6%
- Neu (10 mg/kg, dose level Low): 5.6%
- Plat (10 mg/kg, dose level Low): 126.2 x10_4/uL
- RBC (10 mg/kg, dose level Low): 653 x10_4/ul
- Ret (10 mg/kg, dose level Low): 5.7%
- WBC (10 mg/kg, dose level Low): 66.8 x10_2/uL
- KIDNEY_L (10 mg/kg, dose level Low): 1 g
- KIDNEY_R (10 mg/kg, dose level Low): 1 g
- KIDNEY_TOTAL (10 mg/kg, dose level Low): 2.1 g
- LIVER (10 mg/kg, dose level Low): 10.9 g
- A/G (10 mg/kg, dose level Low): 1
- ALP (10 mg/kg, dose level Low): 1481.4 IU/L
- ALT (10 mg/kg, dose level Low): 33.4 IU/L
- AST (10 mg/kg, dose level Low): 65.8 IU/L
- BUN (10 mg/kg, dose level Low): 16.9 mg/dL
- CRE (10 mg/kg, dose level Low): 0.1 mg/dL
- Ca (10 mg/kg, dose level Low): 10.6 mg/dL
- Cl (10 mg/kg, dose level Low): 102.9 meq/L
- DBIL (10 mg/kg, dose level Low): 0.004 mg/dL
- GLC (10 mg/kg, dose level Low): 198 mg/dL
- IP (10 mg/kg, dose level Low): 7.2 mg/dL
- K (10 mg/kg, dose level Low): 4.1 meq/L
- LDH (10 mg/kg, dose level Low): 138.4 IU/L
- Na (10 mg/kg, dose level Low): 141 meq/L
- PL (10 mg/kg, dose level Low): 167.6 mg/dL
- RALB (10 mg/kg, dose level Low): 2.9 g/dL
- TBIL (10 mg/kg, dose level Low): 0.01 mg/dL
- TC (10 mg/kg, dose level Low): 85.6 mg/dL
- TG (10 mg/kg, dose level Low): 118.8 mg/dL
- TP (10 mg/kg, dose level Low): 5.7 g/dL
- gamma-GTP (10 mg/kg, dose level Low): 0.8 IU/L
- TERMINAL_BW (30 mg/kg, dose level Middle): 227.7 g
- Bas (30 mg/kg, dose level Middle): 0%
- Eos (30 mg/kg, dose level Middle): 0%
- Hb (30 mg/kg, dose level Middle): 11.8 g/dL
- Ht (30 mg/kg, dose level Middle): 35.8%
- Lym (30 mg/kg, dose level Middle): 80.2%
- MCH (30 mg/kg, dose level Middle): 20.8 pg
- MCHC (30 mg/kg, dose level Middle): 32.9%
- MCV (30 mg/kg, dose level Middle): 63.3 fL
- Mono (30 mg/kg, dose level Middle): 3.2%
- Neu (30 mg/kg, dose level Middle): 15.4%
- Plat (30 mg/kg, dose level Middle): 127.5 x10_4/uL
- RBC (30 mg/kg, dose level Middle): 566 x10_4/ul
- Ret (30 mg/kg, dose level Middle): 4.9%
- WBC (30 mg/kg, dose level Middle): 34.5 x10_2/uL
- KIDNEY_L (30 mg/kg, dose level Middle): 1 g
- KIDNEY_R (30 mg/kg, dose level Middle): 1 g
- KIDNEY_TOTAL (30 mg/kg, dose level Middle): 2 g
- LIVER (30 mg/kg, dose level Middle): 9.9 g
- A/G (30 mg/kg, dose level Middle): 0.9
- ALP (30 mg/kg, dose level Middle): 1270.8 IU/L
- ALT (30 mg/kg, dose level Middle): 35.2 IU/L
- AST (30 mg/kg, dose level Middle): 70 IU/L
- BUN (30 mg/kg, dose level Middle): 17.6 mg/dL
- CRE (30 mg/kg, dose level Middle): 0.1 mg/dL
- Ca (30 mg/kg, dose level Middle): 10.4 mg/dL
- Cl (30 mg/kg, dose level Middle): 103.6 meq/L
- DBIL (30 mg/kg, dose level Middle): 0.01 mg/dL
- GLC (30 mg/kg, dose level Middle): 196 mg/dL
- IP (30 mg/kg, dose level Middle): 8.3 mg/dL
- K (30 mg/kg, dose level Middle): 3.9 meq/L
- LDH (30 mg/kg, dose level Middle): 151 IU/L
- Na (30 mg/kg, dose level Middle): 141.8 meq/L
- PL (30 mg/kg, dose level Middle): 150.4 mg/dL
- RALB (30 mg/kg, dose level Middle): 2.7 g/dL
- TBIL (30 mg/kg, dose level Middle): 0.022 mg/dL
- TC (30 mg/kg, dose level Middle): 82.6 mg/dL
- TG (30 mg/kg, dose level Middle): 51.7 mg/dL
- TP (30 mg/kg, dose level Middle): 5.6 g/dL
- gamma-GTP (30 mg/kg, dose level Middle): 1 IU/L
- TERMINAL_BW (100 mg/kg, dose level High): 207.9 g
- Bas (100 mg/kg, dose level High): 0%
- Eos (100 mg/kg, dose level High): 0%
- Hb (100 mg/kg, dose level High): 13.8 g/dL
- Ht (100 mg/kg, dose level High): 41.1%
- Lym (100 mg/kg, dose level High): 14.2%
- MCH (100 mg/kg, dose level High): 20.5 pg
- MCHC (100 mg/kg, dose level High): 33.5%
- MCV (100 mg/kg, dose level High): 61.1 fL
- Mono (100 mg/kg, dose level High): 3.2%
- Neu (100 mg/kg, dose level High): 82%
- Plat (100 mg/kg, dose level High): 117.5 x10_4/uL
- RBC (100 mg/kg, dose level High): 673.6 x10_4/ul
- Ret (100 mg/kg, dose level High): 4.4%
- WBC (100 mg/kg, dose level High): 13.1 x10_2/uL
- KIDNEY_L (100 mg/kg, dose level High): 1 g
- KIDNEY_R (100 mg/kg, dose level High): 1 g
- KIDNEY_TOTAL (100 mg/kg, dose level High): 1.9 g
- LIVER (100 mg/kg, dose level High): 9.7 g
- A/G (100 mg/kg, dose level High): 1
- ALP (100 mg/kg, dose level High): 1181 IU/L
- ALT (100 mg/kg, dose level High): 28.6 IU/L
- AST (100 mg/kg, dose level High): 113 IU/L
- BUN (100 mg/kg, dose level High): 16.2 mg/dL
- CRE (100 mg/kg, dose level High): 0.1 mg/dL
- Ca (100 mg/kg, dose level High): 10.3 mg/dL
- Cl (100 mg/kg, dose level High): 101.6 meq/L
- DBIL (100 mg/kg, dose level High): 0.01 mg/dL
- GLC (100 mg/kg, dose level High): 197.8 mg/dL
- IP (100 mg/kg, dose level High): 8.2 mg/dL
- K (100 mg/kg, dose level High): 3.6 meq/L
- LDH (100 mg/kg, dose level High): 166.4 IU/L
- Na (100 mg/kg, dose level High): 142.3 meq/L
- PL (100 mg/kg, dose level High): 150.4 mg/dL
- RALB (100 mg/kg, dose level High): 2.7 g/dL
- TBIL (100 mg/kg, dose level High): 0.016 mg/dL
- TC (100 mg/kg, dose level High): 75.8 mg/dL
- TG (100 mg/kg, dose level High): 59.3 mg/dL
- TP (100 mg/kg, dose level High): 5.4 g/dL
- gamma-GTP (100 mg/kg, dose level High): 0.7 IU/L
